{"source": "patent US20230159489A1", "about": "“PHD INHIBITOR COMPOUNDS, COMPOSITIONS, AND USE” (Akebia Therapeutics, Inc., priority 2020, published 2023)", "key": {"full-length human PHD2": {"target": "full-length human PHD2 (Homo sapiens, UniProt Q9GZT9)", "sequence (Q9GZT9 whole entry)": "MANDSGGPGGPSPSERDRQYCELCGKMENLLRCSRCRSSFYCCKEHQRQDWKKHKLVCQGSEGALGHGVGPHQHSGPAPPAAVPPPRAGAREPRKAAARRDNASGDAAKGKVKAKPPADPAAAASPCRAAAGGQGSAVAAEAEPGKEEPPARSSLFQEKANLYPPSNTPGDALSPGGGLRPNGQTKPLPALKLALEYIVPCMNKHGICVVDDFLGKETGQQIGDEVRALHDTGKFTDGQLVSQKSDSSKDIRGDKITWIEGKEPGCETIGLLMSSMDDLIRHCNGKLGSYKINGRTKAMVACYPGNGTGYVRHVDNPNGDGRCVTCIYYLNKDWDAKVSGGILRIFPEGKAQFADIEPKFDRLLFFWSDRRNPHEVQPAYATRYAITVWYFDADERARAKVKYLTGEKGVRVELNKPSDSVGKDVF", "assay": "TR-FRET assay, enzymatic IC50 against PHD2", "text": "Time-resolved fluorescence resonance energy transfer (TR-FRET) assay was utilized to determine the enzymatic half maximal inhibitory concentration (IC50) value of PHD inhibitors against the full-length human prolyl-4-hydroxylase domain (PHD) enzymes, PHD1, PHD2, and PHD3. The TR-FRET assay was developed based on the specific binding of hydroxylated HIF-1α peptide with the complex formed by VHL, EloB and EloC (VBC), to generate a fluorescent signal. Terbium (Tb)-Donor (monoclonal antibody anti-6His-Tb-cryptate Gold) and D2-acceptor (streptavidin [SA]-D2) of TR-FRET are linked to the VBC complex and to HIF-1α peptide, respectively. The VBC complex binds specifically to the HIF-1α peptide when it is hydroxylated, allowing energy transfer from TR-FRET donor to acceptor (FIG. 1). […] The plates were incubated for 30 minutes at room temperature without rotation. […] TR-FRET assays were performed in triplicate at each concentration of compound and the assays were repeated independently three times."}, "full-length human PHD1": {"target": "T1, full-length human PHD1 (Homo sapiens, UniProt Q96KS0)", "T1 construct": "FLAG (N); purchased Active Motif 81064; host or cells: baculovirus expression system", "T1 sequence (Q96KS0 whole entry)": "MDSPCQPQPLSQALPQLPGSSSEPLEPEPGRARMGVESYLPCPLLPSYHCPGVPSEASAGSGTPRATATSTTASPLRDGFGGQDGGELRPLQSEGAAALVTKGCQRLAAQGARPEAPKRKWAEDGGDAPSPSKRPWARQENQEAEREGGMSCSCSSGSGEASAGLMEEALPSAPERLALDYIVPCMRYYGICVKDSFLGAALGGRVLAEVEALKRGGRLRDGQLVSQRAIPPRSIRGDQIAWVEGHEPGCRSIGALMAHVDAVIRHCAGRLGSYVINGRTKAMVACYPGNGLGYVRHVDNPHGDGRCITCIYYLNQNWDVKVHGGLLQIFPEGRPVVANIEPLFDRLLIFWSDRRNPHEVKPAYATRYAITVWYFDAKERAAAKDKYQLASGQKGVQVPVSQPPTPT", "assay": "TR-FRET assay, enzymatic IC50 against PHD1; note: 15 nM PHD1", "type": "biochemical", "from_the_text": "PHD1 was expressed in a baculovirus expression system as the full-length protein (NCBI accession number NP_542770.2) with an N-terminal FLAG tag (molecular weight 44.9 kDa)."}, "full-length human PHD3": {"target": "T2, full-length human PHD3 (Homo sapiens, UniProt Q9H6Z9)", "T2 construct": "6-His (N); purchased Active Motif 81033; host or cells: E. coli", "T2 sequence (Q9H6Z9 whole entry)": "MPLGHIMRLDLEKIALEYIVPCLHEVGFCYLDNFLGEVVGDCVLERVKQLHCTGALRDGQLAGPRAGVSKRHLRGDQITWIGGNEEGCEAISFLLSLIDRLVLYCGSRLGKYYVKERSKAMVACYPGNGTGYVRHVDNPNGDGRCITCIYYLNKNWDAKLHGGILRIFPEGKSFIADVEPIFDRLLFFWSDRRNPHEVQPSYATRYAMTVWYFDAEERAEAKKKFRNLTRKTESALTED", "assay": "TR-FRET assay, enzymatic IC50 against PHD3; note: 35 nM PHD3", "type": "biochemical", "from_the_text": "Recombinant human PHD3 protein (molecular weight 31.1 kDa) was purchased from Active Motif (Carlsbad, Calif., USA). It was expressed in E. coli as the full-length protein (NCBI accession number NP_071356.1) with an N-terminal 6-His tag (catalog #81033, Lot #24417001)."}}}
{"smiles": "CCC(=O)Nc1ccc(-n2nc(C)c(-c3ccc(C#N)cc3)c2O)nc1", "note": "[Compound 9, N-(6-(4-(4-cyanophenyl)-5-hydroxy-3-methyl-1H-pyrazol-1-yl)pyridin-3-yl)propionamide]", "values": [{"measurement": "IC50", "setting": "full-length human PHD2", "result": "< 100", "unit": "nM"}, {"measurement": "IC50", "setting": "full-length human PHD1", "result": "< 100", "unit": "nM"}, {"measurement": "IC50", "setting": "full-length human PHD3", "result": "100 to 1000", "unit": "nM"}]}
{"smiles": "Cc1nn(-c2ccc(C(=O)C(C)C)cn2)c(O)c1-c1ccc(C#N)cc1", "note": "[Compound 10, 4-(5-hydroxy-1-(5-isobutyrylpyridin-2-yl)-3-methyl-1H-pyrazol-4-yl)benzonitrile]", "values": [{"measurement": "IC50", "setting": "full-length human PHD2", "result": "< 100", "unit": "nM"}, {"measurement": "IC50", "setting": "full-length human PHD1", "result": "< 100", "unit": "nM"}, {"measurement": "IC50", "setting": "full-length human PHD3", "result": "100 to 1000", "unit": "nM"}]}
{"smiles": "Cc1nn(-c2ccc(S(N)(=O)=O)cn2)c(O)c1-c1ccc(C#N)cc1", "note": "[Compound 11, 6-(4-(4-cyanophenyl)-5-hydroxy-3-methyl-1H-pyrazol-1-yl)pyridine-3-sulfonamide]", "values": [{"measurement": "IC50", "setting": "full-length human PHD2", "result": "< 100", "unit": "nM"}, {"measurement": "IC50", "setting": "full-length human PHD1", "result": "< 100", "unit": "nM"}, {"measurement": "IC50", "setting": "full-length human PHD3", "result": "< 100", "unit": "nM"}]}
{"smiles": "Cc1nn(-c2ccc([S+](C)[O-])cn2)c(O)c1-c1ccc(C#N)cc1", "note": "(stereo not drawn) [Compound 12, 4-(5-hydroxy-3-methyl-1-(5-(methylsulfinyl)pyridin-2-yl)-1H-pyrazol-4-yl)benzonitrile]", "values": [{"measurement": "IC50", "setting": "full-length human PHD2", "result": "< 100", "unit": "nM"}, {"measurement": "IC50", "setting": "full-length human PHD1", "result": "< 100", "unit": "nM"}, {"measurement": "IC50", "setting": "full-length human PHD3", "result": "< 100", "unit": "nM"}]}
{"smiles": "Cc1nn(-c2ccc(S(C)(=N)=O)cn2)c(O)c1-c1ccc(C#N)cc1", "note": "(stereo not drawn) [Compound 13, 4-(5-hydroxy-3-methyl-1-(5-(S-methylsulfonimidoyl)pyridin-2-yl)-1H-pyrazol-4-yl)benzonitrile]", "values": [{"measurement": "IC50", "setting": "full-length human PHD2", "result": "< 100", "unit": "nM"}, {"measurement": "IC50", "setting": "full-length human PHD1", "result": "< 100", "unit": "nM"}, {"measurement": "IC50", "setting": "full-length human PHD3", "result": "100 to 1000", "unit": "nM"}]}
{"smiles": "CN=S(C)(=O)c1ccc(-n2nc(C)c(-c3ccc(C#N)cc3)c2O)nc1", "note": "(stereo not drawn) [Compound 15, 4-(1-(5-(N,S-dimethylsulfonimidoyl)pyridin-2-yl)-5-hydroxy-3-methyl-1H-pyrazol-4-yl)benzonitrile]", "values": [{"measurement": "IC50", "setting": "full-length human PHD2", "result": "< 100", "unit": "nM"}, {"measurement": "IC50", "setting": "full-length human PHD1", "result": "< 100", "unit": "nM"}, {"measurement": "IC50", "setting": "full-length human PHD3", "result": "< 100", "unit": "nM"}]}
{"smiles": "Cc1nn(-c2ccc(C(=O)NS(C)(=O)=O)cn2)c(O)c1-c1ccc(C#N)cc1", "note": "[Compound 27, 6-(4-(4-cyanophenyl)-5-hydroxy-3-methyl-1H-pyrazol-1-yl)-N-(methylsulfonyl)nicotinamide]", "values": [{"measurement": "IC50", "setting": "full-length human PHD2", "result": "< 100", "unit": "nM"}, {"measurement": "IC50", "setting": "full-length human PHD1", "result": "< 100", "unit": "nM"}, {"measurement": "IC50", "setting": "full-length human PHD3", "result": "< 100", "unit": "nM"}]}
{"smiles": "Cc1nn(-c2ccc(S(=N)(=O)C3CCC3)cn2)c(O)c1-c1ccc(C#N)cc1", "note": "(stereo not drawn) [Compound 34, 4-(1-(5-(cyclobutanesulfonimidoyl)pyridin-2-yl)-5-hydroxy-3-methyl-1H-pyrazol-4-yl)benzonitrile]", "values": [{"measurement": "IC50", "setting": "full-length human PHD2", "result": "< 100", "unit": "nM"}, {"measurement": "IC50", "setting": "full-length human PHD1", "result": "< 100", "unit": "nM"}, {"measurement": "IC50", "setting": "full-length human PHD3", "result": "< 100", "unit": "nM"}]}
{"smiles": "Cc1nn(-c2ccc(S(=N)(=O)C3CCCC3)cn2)c(O)c1-c1ccc(C#N)cc1", "note": "(stereo not drawn) [Compound 35, 4-(1-(5-(cyclopentanesulfonimidoyl)pyridin-2-yl)-5-hydroxy-3-methyl-1H-pyrazol-4-yl)benzonitrile]", "values": [{"measurement": "IC50", "setting": "full-length human PHD2", "result": "< 100", "unit": "nM"}, {"measurement": "IC50", "setting": "full-length human PHD1", "result": "< 100", "unit": "nM"}, {"measurement": "IC50", "setting": "full-length human PHD3", "result": "< 100", "unit": "nM"}]}
{"smiles": "Cc1cc(-n2nc(C)c(-c3ccc(C#N)cc3)c2O)ncc1P(C)(C)=O", "note": "[Compound 36, 4-(1-(5-(dimethylphosphoryl)-4-methylpyridin-2-yl)-5-hydroxy-3-methyl-1H-pyrazol-4-yl)benzonitrile]", "values": [{"measurement": "IC50", "setting": "full-length human PHD2", "result": "< 100", "unit": "nM"}, {"measurement": "IC50", "setting": "full-length human PHD1", "result": "< 100", "unit": "nM"}, {"measurement": "IC50", "setting": "full-length human PHD3", "result": "100 to 1000", "unit": "nM"}]}
{"smiles": "Cc1nn(-c2ccc(S(C)(=O)=O)cn2)c(O)c1-c1ccc(C#N)cn1", "note": "[Compound 44, 6-(5-hydroxy-3-methyl-1-(5-(methylsulfonyl)pyridin-2-yl)-1H-pyrazol-4-yl)nicotinonitrile]", "values": [{"measurement": "IC50", "setting": "full-length human PHD2", "result": "100 to 1000", "unit": "nM"}, {"measurement": "IC50", "setting": "full-length human PHD1", "result": "100 to 1000", "unit": "nM"}, {"measurement": "IC50", "setting": "full-length human PHD3", "result": "1000 to 10000", "unit": "nM"}]}
{"smiles": "Cc1nn(-c2ccc(NS(=O)(=O)CC(=O)O)cn2)c(O)c1-c1ccc(C#N)cc1", "note": "[Compound 55, 2-(N-(6-(4-(4-cyanophenyl)-5-hydroxy-3-methyl-1H-pyrazol-1-yl)pyridin-3-yl)sulfamoyl)acetic acid]", "values": [{"measurement": "IC50", "setting": "full-length human PHD2", "result": "< 100", "unit": "nM"}, {"measurement": "IC50", "setting": "full-length human PHD1", "result": "< 100", "unit": "nM"}, {"measurement": "IC50", "setting": "full-length human PHD3", "result": "< 100", "unit": "nM"}]}
{"smiles": "Cc1nn(-c2ccc([S@@](=N)(=O)C3CC3)cn2)c(O)c1-c1ccc(C#N)cc1", "note": "[Compound 56, (S)-4-(1-(5-(cyclopropanesulfonimidoyl)pyridin-2-yl)-5-hydroxy-3-methyl-1H-pyrazol-4-yl)benzonitrile]", "values": [{"measurement": "IC50", "setting": "full-length human PHD2", "result": "< 100", "unit": "nM"}, {"measurement": "IC50", "setting": "full-length human PHD1", "result": "< 100", "unit": "nM"}, {"measurement": "IC50", "setting": "full-length human PHD3", "result": "< 100", "unit": "nM"}]}
{"smiles": "Cc1nn(-c2ccc(S(C)(=O)=NC#N)cn2)c(O)c1-c1ccc(C#N)cc1", "note": "(stereo not drawn) [Compound 58, N-((6-(4-(4-cyanophenyl)-5-hydroxy-3-methyl-1H-pyrazol-1-yl)pyridin-3-yl)(methyl)(oxo)-λ^6-sulfaneylidene)cyanamide]", "values": [{"measurement": "IC50", "setting": "full-length human PHD2", "result": "< 100", "unit": "nM"}, {"measurement": "IC50", "setting": "full-length human PHD1", "result": "< 100", "unit": "nM"}, {"measurement": "IC50", "setting": "full-length human PHD3", "result": "100 to 1000", "unit": "nM"}]}
